Values of other authors in patent US20200323813A1, “TREATMENT OF VIRAL HEMORRHAGIC FEVERS WITH COX-2 SELECTIVE NON-STEROIDAL ANTI-INFLAMMATORY DRUGS” (Tremeau Pharmaceuticals, Inc., priority 2019, published 2020).

What was measured:
[1] = tested on: platelet aggregation or bleeding time; settings: doses up to 375 mg/day
[2] = oral once daily product
[3] = versus non-selective NSAIDs

CS(=O)(=O)c1ccc(C2=C(c3ccccc3)C(=O)OC2)cc1 [Rofecoxib, 4-[4-(methylsulfonyl)phenyl]-3-phenyl-2(5H)-furanone]
COX-2 versus COX-1 selectivity (COX-2 versus COX-1): 35 fold | effect on bleeding time [1]: not affect | effect on platelet aggregation [1]: not affect | half-live [2]: approximately 17 hours | median onset of action (acute pain settings): 45 min | sustained efficacy (duration) (single dose): 24 h | GI tolerability and safety events [3]: significant improvements
